Patent US5866571A, “9-substituted 2-(2-n-alkoxyphenyl)-purin-6-ones” (Bayer Aktiengesellschaft, priority 1995, dated 1999)

What was measured:
Assay type in all cases: biochemical
[1] = test system: PDE II (cGMP-stimulatable PDE II); test: Inhibition of the phosphodiesterases in vitro: PDE II; conditions: enzyme from porcine or bovine myocardium; ^3HcAMP substrate plus 10^-6 mol/l non-labelled cGMP, pH 7.5, 30 minutes
Experimental: (§1) Activity of the phosphodiesterases (PDE's)
(§2) The cGMP-stimulatable PDE II, the cGMP-inhibitable PDE III and the cAMP-specific PDE IV were isolated from either the porcine or the bovine myocardium. The Ca-calmodulin-stimulatable PDE I was isolated from porcine aorta or porcine brain. The cGMP-specific PDE V was obtained from porcine small intestine, porcine aorta and/or human blood platelets. Purification was carried out by anion exchange chromatography on MonoQ^R Pharmacia essentially by the method of M. Hoey and Miles D. Houslay, Biochemical Pharmacology, Volume 40, 193-202 (1990).
(§3) The enzyme activity is determined in a test batch of 100 μl in 20 mM Tris/HCl buffer of pH 7.5 which contains 5 mM MgCl2, 0.1 mg/ml of bovine serum albumin and either 800 Bq of ^3 HcAMP or ^3 HcGMP. The final concentration of the corresponding nucleotides is 10^-6 mol/l. The reaction is started by addition of the enzyme and the amount of enzyme is chosen such that about 50% of the substrate is reacted during the incubation time of 30 minutes. In order to test the cGMP-stimulatable PDE II, ^3 HcAMP is used as the substrate and 10^-6 mol/l of non-labelled cGMP is added to the batch. In order to test the Ca-calmodulin-dependent PDE I, 1 μM CaCl2 and 0.1 μM calmodulin are also added to the reaction batch. The reaction is stopped by addition of 100 μl of acetonitrile which contains 1 mM cAMP and 1 mM AMP. 100 μl of the reaction batch are separated on the […] and the cleavage products are determined quantitatively "on line" with a flow-through scintillation counter. The substance concentration at which the rate of reaction is reduced by 50% is measured.
(§4) Inhibition of the phosphodiesterases in vitro

[2] = test system: PDE V (cGMP-specific PDE V); test: Inhibition of the phosphodiesterases in vitro: PDE V; conditions: enzyme from porcine small intestine, porcine aorta and/or human blood platelets; 10^-6 mol/l nucleotide, pH 7.5, 30 minutes
Experimental: as §1, §2, §3, §4

[3] = test system: PDE I (Ca-calmodulin-stimulatable PDE I); test: Inhibition of the phosphodiesterases in vitro: PDE I; conditions: enzyme from porcine aorta or porcine brain; 1 μM CaCl2, 0.1 μM calmodulin; 10^-6 mol/l nucleotide, pH 7.5, 30 minutes
Experimental: as §1, §2, §3, §4

| IC50 [1] | IC50 [2] | IC50 [3] | SMILES |
| --- | --- | --- | --- |
| 6 µM | 0.1 µM | 50 µM | CCCCCCC(C(C)O)n1cnc2c(=O)[nH]c(-c3ccccc3OCCC)nc21 (stereo not drawn) [Example 3, 9-(2-hydroxy-3-nonyl)-2-(2-n-propoxyphenyl)-purin-6-one] |
| 1 µM | 5 µM | 2 µM | CCCOc1ccccc1-c1nc2c(ncn2C(CCc2ccccc2)C(C)O)c(=O)[nH]1 (stereo not drawn) [Example 4, 9-(2-hydroxy-5-phenyl-3-methyl)-2-(2-n-propoxyphenyl)-purin-6-one] |
| 0.5 µM | 2 µM | 1 µM | CCCOc1ccccc1-c1nc2c(ncn2C(CCCc2ccccc2)C(C)O)c(=O)[nH]1 (stereo not drawn) [Example 5, 9-(2-hydroxy-6-phenyl-3-hexyl)-2-(2-n-propoxyphenyl)-purin-6-one] |
| 0.3 µM | 0.5 µM | 0.5 µM | CCCOc1ccccc1-c1nc2c(ncn2C(C)CCCc2ccccc2)c(=O)[nH]1 (stereo not drawn) [Example 11] |
| 2 µM | 1 µM | 2 µM | CCCCCCC(C(C)NC(C)=O)n1cnc2c(=O)[nH]c(-c3ccccc3OCCC)nc21 (stereo not drawn) [Example 37, 9-(2-Acetamido-3-nonyl)-2-(2-n-propoxyphenyl)-purin-6-one] |
| 0.3 µM | 0.1 µM | 0.3 µM | CCCCCCC(CC)n1cnc2c(=O)[nH]c(-c3cc(S(=O)(=O)N4CCOCC4)ccc3OCCC)nc21 (stereo not drawn) [Example 57] |
